Data on four molecules can be found in patent US8455023B2, “Composition for inhibiting melanogenesis and use thereof” (Kaohsiung Medical University, priority 2010, dated 2013).

What all share (type): cell-based
One data set has as its target T1, tyrosinase (Homo sapiens, UniProt P14679).
T1 construct: endogenous in cells; host or cells: HEMn-MP human epidermal melanocytes (lysate in 1% Triton X-100/PBS)
T1 sequence (P14679 19-529): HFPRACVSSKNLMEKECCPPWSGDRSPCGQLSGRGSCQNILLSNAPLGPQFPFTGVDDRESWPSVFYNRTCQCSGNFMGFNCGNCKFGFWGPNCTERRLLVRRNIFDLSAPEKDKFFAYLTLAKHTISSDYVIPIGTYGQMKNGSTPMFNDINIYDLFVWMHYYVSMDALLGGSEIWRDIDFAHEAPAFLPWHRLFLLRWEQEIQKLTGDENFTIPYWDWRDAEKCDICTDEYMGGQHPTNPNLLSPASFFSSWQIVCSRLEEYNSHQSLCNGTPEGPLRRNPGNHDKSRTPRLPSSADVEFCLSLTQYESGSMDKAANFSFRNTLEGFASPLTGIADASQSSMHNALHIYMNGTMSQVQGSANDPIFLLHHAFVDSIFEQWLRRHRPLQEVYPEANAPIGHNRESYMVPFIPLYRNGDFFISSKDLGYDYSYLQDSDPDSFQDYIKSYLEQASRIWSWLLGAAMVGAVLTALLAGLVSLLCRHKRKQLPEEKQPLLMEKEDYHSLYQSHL
Briefly: Tyrosinase activity assay (dopachrome biosynthesis rate, lysate of treated HEMn-MP cells). To be noted: for Tyrosinase activity percentage (%): 3 days, control = 100%; for Tyrosinase activity (in words): FIG. 2B. The procedure:
Cultured cells were rinsed with […] resuspend in 1% Triton X-100/PBS. Cell lysate was harvested. L-Dopa and L-tyrosine 10 μl (10 mM in 0.1M PBS, pH 6.8) were added and incubated at 37° C. for 3 hours. After reaction, the OD 490 nm value was measured.

For data set [1], the system named is Neonatal foreskin primary human epidermal melanocytes (HEMn-MP). Briefly: Toxicity assay (MTS) in human melanocytes. The method, then: Neonatal foreskin primary human epidermal melanocytes (HEMn-MP) was purchased from Cascade Biologics™, and cultured in 254 medium (Cascade Biologics™) with human melanocyte growth supplement (HMGS, cat. #S-002-5). Cells were maintained at 37° C. humid environment (5% CO2). Neonatal foreskin primary human epidermal melanocytes (HEMn-MP) were cultured in 24-Well plates at seeding density of 10^5 cells/well.
MTS assay (Mosmann T, Rapid colorimetric assay for cellular growth and survival: application to proliferation and cytotoxicity assays J Immunol Methods 1983 16; 65(1-2):55-63) was used for cell toxicity assay. […] The stimulation of MSH to melanin synthesis was used as a reference for comparison of compound (I) and (II). Control group value was set as 100% which obtained from 3 independent experiments.

Data set [2] has the same test system. The data set is described as follows: Microscopic appearance of HEMn-MP cells (FIG. 3). To be noted: high concentrations; 200× bright field; FIGS. 3E and 3J. The text has this:
Microscopic images were taken under 200× magnification bright field view. The arrow head indicates bipolar appearance of neonatal foreskin primary human epidermal melanocyte (HEMn-MP).
Under 200× bright field microscope, the control group and low concentration compound (I) and (II) treated cells (FIGS. 3A, 3H, 3I, 3M and 3N) were lined up tightly showing bipolar appearance.

The test system is the same in data set [3]. The data set is described as follows: Melanin quantitation analysis in HEMn-MP cells. The settings on record: for Percentage of cellular melanin concentration (%): control = 100%; for Cell melanin content (in words): FIG. 2C. The procedure:
Lin's method was used to quantify melanin (Lin et al., Constituents from the Formosan apple reduce tyrosinase activity in human epidermal melanocytes 2007 Phytochemistry Volume 68, Issue 8, Pages 1189-1199). Cells were resuspend in 1N NaOH and dimethyl sulfoxide (DSMO), heated at 80° C. for 1 hour, centrifuged for 10 min at 10,000 rpm, and measured OD 405 nm value of supernatant. As shown in Table 3 and FIG. 2C, the control group value was set as 100%. All results obtained from 3 independent experiments.

The mark [4] stands for this setting: reference, concentration 100 μM.

Read-outs that look alike come from different tables or passages of the source.

In the case of `C=C1OC(=O)/C(=C\CCCCCCCCCCCCC)[C@H]1O` [Linderanolide B, linderanolide B], the “Tyrosinase activity percentage (%)” value was 84.15% on tyrosinase (0.01 μM); 72.96% at tyrosinase (0.1 μM (MSH concentration)); 45.91% on tyrosinase (1 μM); 18.04% on tyrosinase (5 μM); 14.59% on tyrosinase (10 μM). In addition, the “Tyrosinase activity (in words)” value on tyrosinase is given as “reduced along with elevated concentrations”. Further, in data set [1], the “Cell activity (in words)” value is reported as “reduced along with higher concentrations”. In addition, the “Cell activity percentage (%)” value in data set [1] (human, 0.01 μM) came to 94.19%; in data set [1] (human, 0.1 μM) it was 87.52%; in data set [1] (human, 1 μM), 83%; in data set [1] (human, 5 μM), 62.41%; in data set [1] (human, 10 μM) it was 54.26%. Further, the “Cell appearance under microscope” value in data set [2] was “partial toxicity to cells”. In addition, the “Percentage of cellular melanin concentration (%)” value in data set [3] (0.01 μM) is listed as 89.63%; in data set [3] (0.1 μM (MSH concentration)), 78.63%; in data set [3] (1 μM) it was 67.56%; in data set [3] (5 μM) it was 28.93%; in data set [3] (10 μM), 24.39%. The “Cell melanin content (in words)” value in data set [3] is “cell melanin content decreased”.

In the case of `O=c1cc(CO)occ1O` [Kojic acid, reference compound], the “Cell activity (in words)” value in data set [1] was “less effects on cell activity”. In addition, the “Cell activity percentage (%)” value in data set [1] (human, 100 μM) amounted to 72.87%. In data set [3], the “Cell melanin content (in words)” value is given as “reduced melanin content”. Also, in data set [3] (setting [4]), the “Percentage of cellular melanin concentration (%)” value is 66.34%.

For `NC(=S)Nc1ccccc1` [N-phenylthiourea, reference compound], the “Tyrosinase activity (in words)” value on tyrosinase is “less effective to tyrosinase activity”. On tyrosinase (setting [4]), the “Tyrosinase activity percentage (%)” value amounted to 71.07%. Further, in data set [1] (100 μM, MTS, control = 100%), the “Cell activity percentage (%)” value is listed as 79.07%. For the same molecule, the “Cell activity (in words)” value in data set [1] (FIG. 2A) is “less effects on cell activity”. Also, the “Cell melanin content (in words)” value in data set [3] is “reduced melanin content”. Also, in data set [3] (setting [4]), the “Percentage of cellular melanin concentration (%)” value was found to be 77.56%.

For the molecule `CCCCCCCCCCCCC/C=C1\C(=O)O[C@@](C)(OC)[C@@H]1O` [Subamolide A, subamolide A], the “Tyrosinase activity percentage (%)” value stood at 78.62% at tyrosinase (0.01 μM); 74.21% at tyrosinase (0.1 μM (MSH concentration)); 44.03% on tyrosinase (1 μM); 7.369% on tyrosinase (5 μM); 7.275% on tyrosinase (10 μM). Moreover, the “Tyrosinase activity (in words)” value on tyrosinase is “reduced along with elevated concentrations”. The “Cell activity (in words)” value in data set [1] was “reduced along with higher concentrations”. The “Cell activity percentage (%)” value in data set [1] (human, 0.01 μM) was 93.41%; in data set [1] (human, 0.1 μM) it was 85.66%; in data set [1] (human, 1 μM), 73.91%; in data set [1] (human, 5 μM), 54.69%; in data set [1] (human, 10 μM) it was 44.91%. The “Cell appearance under microscope” value in data set [2] is listed as “partial toxicity to cells”. For the same molecule, the “Percentage of cellular melanin concentration (%)” value turned out to be 84.11% in data set [3] (0.01 μM); 76.85% in data set [3] (0.1 μM (MSH concentration)); 66.1% in data set [3] (1 μM); 25.12% in data set [3] (5 μM); 20.2439% in data set [3] (10 μM). Further, the “Cell melanin content (in words)” value in data set [3] was “cell melanin content decreased”.
